Test results: PMC5775428, “Towards an experimental classification system for membrane active peptides” (Scientific Reports, 2018)
Where two headings read alike, the source gives them in different places.

How the values were obtained:
Cryptococcus neoformans = conditions: Cryptococcus neoformans; for Minimum inhibitory concentration, Average: average of triplicates
Description: (§1) Antimicrobial activity was tested against three categories of human and plant pathogenic microorganisms: Gram-positive (Bacillus subtilis, Bacillus cereus, Staphylococcus aureus), Gram-negative (Escherichia coli, Pseudomonas aeruginosa, Erwinia carotovora, Pseudomonas syringae pv. tabaci, Xanthomonas campestris pv. citri) and yeasts (Candida albicans, Cryptococcus neoformans), as previously reported. […] The full list of peptide MICs was published in an accompanying paper, and is available in the current publication as supplementary dataset (Supplementary dataset 01).
(§2) The determination of the minimum inhibitory concentration (MIC) of peptides was performed as described in “Encrypted Antimicrobial Peptides from Plant Proteins”[7]. Briefly, MICs were determined following protocols M7-A10 and M27-A3 from Clinical & Laboratory Standards Institute (CLSI) for bacteria and yeasts, respectively. Different concentrations of IAPs (0.5 to 256 μM) were tested against several microorganisms in a final volume of 100 µL. Three biological repetitions, with 2 technical replicates each, were performed for each test, on polystyrene flat-bottom 96 wells microplates. The minimum inhibitory concentration (MIC) was defined as the concentration at which no cells were detected when visualized by optical microscopy. Please refer to the literature[7] for further details of the microbiological assays.

Escherichia coli = conditions: Escherichia coli; for Minimum inhibitory concentration, Average: average of triplicates
Description: as §1, §2

Candida albicans = conditions: Candida albicans; for Minimum inhibitory concentration, Average: average of triplicates
Description: as §1, §2

Bacillus subtilis = conditions: Bacillus subtilis; for Minimum inhibitory concentration, Average: average of triplicates
Description: as §1, §2

Pseudomonas aeruginosa = conditions: Pseudomonas aeruginosa; for Minimum inhibitory concentration, Average: average of triplicates
Description: as §1, §2

Bacillus cereus = conditions: Bacillus cereus; for Minimum inhibitory concentration, Average: average of triplicates
Description: as §1, §2

Erwinia carotovora = conditions: Erwinia carotovora; for Minimum inhibitory concentration, Average: average of triplicates
Description: as §1, §2

Xanthomonas campestris = conditions: for Minimum inhibitory concentration, Average: average of triplicates
Description: as §1, §2

Staphylococcus aureus = conditions: Staphylococcus aureus; for Minimum inhibitory concentration, Average: average of triplicates
Description: as §1, §2

[1] = test system: Pseudomonas syringae pv. tabaci; conditions: Pseudomonas syringae pv. tabaci; for Minimum inhibitory concentration, Average: average of triplicates
Description: as §1, §2

[2] = CLSI M27-A3, 0.5 to 256 μM tested, triplicate 1, also published in ref 7

GFKDLLKGAAKALVKTVLF [Asc-8, Ascaphin 8, reference compound]
Minimum inhibitory concentration (Cryptococcus neoformans; CLSI M27-A3, triplicate 1): 4 µM
Minimum inhibitory concentration, Average (Cryptococcus neoformans): 4.0 µM
Minimum inhibitory concentration (Cryptococcus neoformans; triplicate 2): 4 µM
Minimum inhibitory concentration (Cryptococcus neoformans; triplicate 3): 4 µM
Minimum inhibitory concentration (Escherichia coli; CLSI M7-A10, triplicate 1): 2 µM
Minimum inhibitory concentration, Average (Escherichia coli): 2.0 µM
Minimum inhibitory concentration (Escherichia coli; triplicate 2): 2 µM
Minimum inhibitory concentration (Escherichia coli; triplicate 3): 2 µM
Minimum inhibitory concentration (Candida albicans; [2]): 8 µM
Minimum inhibitory concentration, Average (Candida albicans): 8.0 µM
Minimum inhibitory concentration (Candida albicans; triplicate 2): 8 µM
Minimum inhibitory concentration (Candida albicans; triplicate 3): 8 µM
Minimum inhibitory concentration (Bacillus subtilis; CLSI M7-A10, triplicate 1): 1 µM
Minimum inhibitory concentration, Average (Bacillus subtilis): 1.0 µM
Minimum inhibitory concentration (Bacillus subtilis; triplicate 2): 1 µM
Minimum inhibitory concentration (Bacillus subtilis; triplicate 3): 1 µM
Minimum inhibitory concentration (Pseudomonas aeruginosa; CLSI M7-A10, triplicate 1): 4 µM
Minimum inhibitory concentration, Average (Pseudomonas aeruginosa): 4.0 µM
Minimum inhibitory concentration (Pseudomonas aeruginosa; triplicate 2): 4 µM
Minimum inhibitory concentration (Pseudomonas aeruginosa; triplicate 3): 4 µM
Minimum inhibitory concentration (Bacillus cereus; CLSI M7-A10, triplicate 1): 4 µM
Minimum inhibitory concentration, Average (Bacillus cereus): 4.0 µM
Minimum inhibitory concentration (Bacillus cereus; triplicate 2): 4 µM
Minimum inhibitory concentration (Bacillus cereus; triplicate 3): 4 µM
Minimum inhibitory concentration (Erwinia carotovora; CLSI M7-A10, triplicate 1): 2 µM
Minimum inhibitory concentration, Average (Erwinia carotovora): 3.3 µM
Minimum inhibitory concentration (Erwinia carotovora; triplicate 2): 4 µM
Minimum inhibitory concentration (Erwinia carotovora; triplicate 3): 4 µM
Minimum inhibitory concentration (Xanthomonas campestris; CLSI M7-A10, triplicate 1): 2 µM
Minimum inhibitory concentration, Average (Xanthomonas campestris): 2.0 µM
Minimum inhibitory concentration (Xanthomonas campestris; triplicate 2): 2 µM
Minimum inhibitory concentration (Xanthomonas campestris; triplicate 3): 2 µM
Minimum inhibitory concentration (Staphylococcus aureus; CLSI M7-A10, triplicate 1): 2 µM
Minimum inhibitory concentration, Average (Staphylococcus aureus): 2.0 µM
Minimum inhibitory concentration (Staphylococcus aureus; triplicate 2): 2 µM
Minimum inhibitory concentration (Staphylococcus aureus; triplicate 3): 2 µM
Minimum inhibitory concentration ([1]; CLSI M7-A10, triplicate 1): 2 µM
Minimum inhibitory concentration, Average [1]: 2.0 µM
Minimum inhibitory concentration ([1]; triplicate 2): 2 µM
Minimum inhibitory concentration ([1]; triplicate 3): 2 µM

GAKLAKKQVRALGKFFSF [At03]
Minimum inhibitory concentration (Cryptococcus neoformans; CLSI M27-A3, triplicate 1): 64 µM
Minimum inhibitory concentration, Average (Cryptococcus neoformans): 64.0 µM
Minimum inhibitory concentration (Cryptococcus neoformans; triplicate 2): 64 µM
Minimum inhibitory concentration (Cryptococcus neoformans; triplicate 3): 64 µM
Minimum inhibitory concentration (Escherichia coli; CLSI M7-A10, triplicate 1): 16 µM
Minimum inhibitory concentration, Average (Escherichia coli): 16.0 µM
Minimum inhibitory concentration (Escherichia coli; triplicate 2): 16 µM
Minimum inhibitory concentration (Escherichia coli; triplicate 3): 16 µM
Minimum inhibitory concentration (Candida albicans; [2]): 128 µM
Minimum inhibitory concentration, Average (Candida albicans): 128.0 µM
Minimum inhibitory concentration (Candida albicans; triplicate 2): 128 µM
Minimum inhibitory concentration (Candida albicans; triplicate 3): 128 µM
Minimum inhibitory concentration (Bacillus subtilis; CLSI M7-A10, triplicate 1): 8 µM
Minimum inhibitory concentration, Average (Bacillus subtilis): 8.0 µM
Minimum inhibitory concentration (Bacillus subtilis; triplicate 2): 8 µM
Minimum inhibitory concentration (Bacillus subtilis; triplicate 3): 8 µM
Minimum inhibitory concentration (Pseudomonas aeruginosa; CLSI M7-A10, triplicate 1): 512 µM
Minimum inhibitory concentration, Average (Pseudomonas aeruginosa): 512.0 µM
Minimum inhibitory concentration (Pseudomonas aeruginosa; triplicate 2): 512 µM
Minimum inhibitory concentration (Pseudomonas aeruginosa; triplicate 3): 512 µM
Minimum inhibitory concentration (Bacillus cereus; CLSI M7-A10, triplicate 1): 512 µM
Minimum inhibitory concentration, Average (Bacillus cereus): 512.0 µM
Minimum inhibitory concentration (Bacillus cereus; triplicate 2): 512 µM
Minimum inhibitory concentration (Bacillus cereus; triplicate 3): 512 µM
Minimum inhibitory concentration (Erwinia carotovora; CLSI M7-A10, triplicate 1): 32 µM
Minimum inhibitory concentration, Average (Erwinia carotovora): 32.0 µM
Minimum inhibitory concentration (Erwinia carotovora; triplicate 2): 32 µM
Minimum inhibitory concentration (Erwinia carotovora; triplicate 3): 32 µM
Minimum inhibitory concentration (Xanthomonas campestris; CLSI M7-A10, triplicate 1): 32 µM
Minimum inhibitory concentration, Average (Xanthomonas campestris): 32.0 µM
Minimum inhibitory concentration (Xanthomonas campestris; triplicate 2): 32 µM
Minimum inhibitory concentration (Xanthomonas campestris; triplicate 3): 32 µM
Minimum inhibitory concentration (Staphylococcus aureus; CLSI M7-A10, triplicate 1): 512 µM
Minimum inhibitory concentration, Average (Staphylococcus aureus): 512.0 µM
Minimum inhibitory concentration (Staphylococcus aureus; triplicate 2): 512 µM
Minimum inhibitory concentration (Staphylococcus aureus; triplicate 3): 512 µM
Minimum inhibitory concentration ([1]; CLSI M7-A10, triplicate 1): 8 µM
Minimum inhibitory concentration, Average [1]: 8.0 µM
Minimum inhibitory concentration ([1]; triplicate 2): 8 µM
Minimum inhibitory concentration ([1]; triplicate 3): 8 µM

IKLRNVLKYLFRIDVIKEDIL [Tc03]
Minimum inhibitory concentration (Cryptococcus neoformans; CLSI M27-A3, triplicate 1): 512 µM
Minimum inhibitory concentration, Average (Cryptococcus neoformans): 512.0 µM
Minimum inhibitory concentration (Cryptococcus neoformans; triplicate 2): 512 µM
Minimum inhibitory concentration (Cryptococcus neoformans; triplicate 3): 512 µM
Minimum inhibitory concentration (Escherichia coli; CLSI M7-A10, triplicate 1): 64 µM
Minimum inhibitory concentration, Average (Escherichia coli): 64.0 µM
Minimum inhibitory concentration (Escherichia coli; triplicate 2): 64 µM
Minimum inhibitory concentration (Escherichia coli; triplicate 3): 64 µM
Minimum inhibitory concentration, Average (Candida albicans): 512.0 µM
Minimum inhibitory concentration (Candida albicans; triplicate 2): 512 µM
Minimum inhibitory concentration (Candida albicans; triplicate 3): 512 µM
Minimum inhibitory concentration (Bacillus subtilis; CLSI M7-A10, triplicate 1): 16 µM
Minimum inhibitory concentration, Average (Bacillus subtilis): 16.0 µM
Minimum inhibitory concentration (Bacillus subtilis; triplicate 2): 16 µM
Minimum inhibitory concentration (Bacillus subtilis; triplicate 3): 16 µM
Minimum inhibitory concentration (Pseudomonas aeruginosa; CLSI M7-A10, triplicate 1): 512 µM
Minimum inhibitory concentration, Average (Pseudomonas aeruginosa): 512.0 µM
Minimum inhibitory concentration (Pseudomonas aeruginosa; triplicate 2): 512 µM
Minimum inhibitory concentration (Pseudomonas aeruginosa; triplicate 3): 512 µM
Minimum inhibitory concentration (Bacillus cereus; CLSI M7-A10, triplicate 1): 128 µM
Minimum inhibitory concentration, Average (Bacillus cereus): 128.0 µM
Minimum inhibitory concentration (Bacillus cereus; triplicate 2): 128 µM
Minimum inhibitory concentration (Bacillus cereus; triplicate 3): 128 µM
Minimum inhibitory concentration (Erwinia carotovora; CLSI M7-A10, triplicate 1): 32 µM
Minimum inhibitory concentration, Average (Erwinia carotovora): 32.0 µM
Minimum inhibitory concentration (Erwinia carotovora; triplicate 2): 32 µM
Minimum inhibitory concentration (Erwinia carotovora; triplicate 3): 32 µM
Minimum inhibitory concentration (Xanthomonas campestris; CLSI M7-A10, triplicate 1): 64 µM
Minimum inhibitory concentration, Average (Xanthomonas campestris): 64.0 µM
Minimum inhibitory concentration (Xanthomonas campestris; triplicate 2): 64 µM
Minimum inhibitory concentration (Xanthomonas campestris; triplicate 3): 64 µM
Minimum inhibitory concentration (Staphylococcus aureus; CLSI M7-A10, triplicate 1): 512 µM
Minimum inhibitory concentration, Average (Staphylococcus aureus): 512.0 µM
Minimum inhibitory concentration (Staphylococcus aureus; triplicate 2): 512 µM
Minimum inhibitory concentration (Staphylococcus aureus; triplicate 3): 512 µM
Minimum inhibitory concentration ([1]; CLSI M7-A10, triplicate 1): 32 µM
Minimum inhibitory concentration, Average [1]: 32.0 µM
Minimum inhibitory concentration ([1]; triplicate 2): 32 µM
Minimum inhibitory concentration ([1]; triplicate 3): 32 µM
